# Entries after “also recorded” stand apart in the source; their conditions may differ.
# Key:
# Assay type in all cases: cell-based
# [1] = test system: Akt; experiment: Mito-AktAR imaging, Akt activity at the mitochondrial outer membrane, NIH3T3 cells
# From the text: (§1) All of the targeting tags were subcloned to AktAR from targeted A Kinase Activity Reporter (AKAR) (Allen & Zhang, Biochem Biophys Res Commun. 2006, 22; 348(2):716-21). Two plasma membrane targeted AktAR, PM(Lyn)-AktAR and AktAR-PM(CAAX), were generated by addition of the N-terminal portion of Lyn kinase gene at the 5′ end and CAAX tag at the 3′ end of AktAR, respectively. Nuclear localization was achieved by a C-terminal nuclear localization signal (NLS) tag (PKKKRKVEDA, SEQ ID NO:31). The targeting motif from DAKAP1a was used to target AktAR to the outer membrane of mitochondria.
# (§2) NIH 3T3 cells were used in all experiments. The cells were plated on sterilized glass coverslips in 35-mm dishes and were grown to 40% confluency in Dulbecco's modified Eagle's medium (10% FBS) at 37° C. with 5% CO2. Cells were transfected with Lipofectamine (Invitrogen) then serum-starved for 24 h before imaging.
# (§3) NIH 3T3 cells were washed once with Hanks' balanced salt solution (HBSS) buffer and imaged in the dark at room temperature. Images were acquired on a Zeiss Axiovert 200M microscope with a cooled charge-coupled device camera, as described in Ananthanarayanan, 2005. Dual emission ratio imaging used a 420DF20 excitation filter, a 450DRLP dichroic mirror, and two emission filters. For CFP and YFP, 475DF40 and 535DF25 were used respectively. Exposure time was 50-500 ms. Images were taken every 20-30 s.
# (§4) Imaging data were analyzed with Metafluor 6.2 software (Universal Imaging, Downingtown, Pa.). Fluorescence images were background-corrected by deducting the background (regions with no cells) from the emission intensities of CFP or YFP. Traces before addition of drugs were normalized to 1.
# It has been known that Akt has several mitochondrial substrates. […] In summary, no basal, PDGF-stimulated, or phosphatase-suppressed endogenous Akt was detected at this location. It is possible that the extremely low activity of Akt at the mitochondrial outer membrane cannot be detected by Mito-AktAR.
# [2] = test system: Akt; experiment: AktAR emission ratio imaging in NIH3T3 cells
# Description: as §2, §3, §4
# [3] = test system: p38 MAPK; experiment: JNK reporter specificity: inhibition of p38 MAPK in HeLa cells; details: 25 μM, 45 min pre-treatment and continual presence
# Description: FIG. 16A-B. Characterization of a MAPK reporter. FIG. 16A, Co-transfection of reporter with mCherry-JIPδ. To inhibit JNK activity, HeLa cells were co-transfected with the reporter and mCherry-JIPδ and imaged 24 h later in HBSS containing 10% FBS on stage warmer heated to 37° C. […] FIG. 16B, Response of reporter to inhibition of p38 MAPK.
# To test the specificity of the reporter, HeLa cells were co-transfected with the reporter and a fusion construct of mCherry with the docking (δ) domain from JIP1.
# [4] = test system: calcineurin; experiment: Calcineurin activity reporter emission ratio imaging in HeLa cells; details: 1 μM, 10 minute preincubation
# Description: FIG. 22. Characterization of calcineurin activity reporter 1 (CaNAR1). Graph of representative response of CaNAR1-expressing HeLa cells following ionomycin treatment. Ionomycin (1 μM) and additional CaCl2 (5 mM) were added to the imaging solution at the indicated times (arrows). The standard deviation for each time point is shown (n=2).
# (§5) FIG. 23A-B. CaNAR1 is dephosphorylated in a calcineurin-dependent manner. FIG. 23A, graph of average response of CaNAR1 in the presence (black squares) or absence (gray diamonds) of cyclosporin A (CsA, 1-μM, 10 minute preincubation). Ionomycin and CaCl2 treatments are as described for FIG. 22. The standard error at each time point is shown (n=4 and 6 in the presence or absence of CsA, respectively). FIG. 23B, the electrophoretic mobility of CaNAR1 isolated from HeLa cell lysates was determined at various times after ionomycin addition using standard western blotting techniques using a rabbit anti-GFP antibody (diluted 1:4000 in blocking buffer) was used to probe for CaNAR1.
# To generate a FRET-based reporter capable of monitoring calcineurin activity in live cells, we initially chose to flank NFAT1(1-415) with ECFP and cpV(L194) at the N- and C-termini, respectively. […] The emission ratio of yellow over cyan was then measured over time in HeLa cells expressing each construct, and their signals compared. […]
# [5] = test system: calcineurin; experiment: Electrophoretic mobility of CaNAR1 from HeLa cell lysates (western blot); details: preincubation prior to ionomycin treatment
# Description: as §5
# Next, to correlate the FRET change with dephosphorylation of CaNAR1, we took advantage of the fact that the electrophoretic mobility of NFAT1 is strongly influenced by its phosphorylation state. […] Though its calculated molecular weight is 85 kDa, CaNAR1 migrated almost exclusively as an approximately 125 kDa species in uninduced cell lysates, consistent with hyperphosphorylation of its substrate region. […] Thus, the observed FRET change is correlated with dephosphorylation of the reporter by calcineurin, providing a real-time readout for calcineurin activity.
# [6] = test system: Akt; experiment: Plasma membrane targeted AktAR imaging in NIH3T3 cells; details: 5 mM pre-incubation for 30 min
# From the text: as §1, §2
# NIH 3T3 cells were washed once with Hanks' balanced salt solution (HBSS) buffer and imaged in the dark at room temperature. Images were acquired on a Zeiss Axiovert 200M microscope with a cooled charge-coupled device camera, as described in Ananthanarayanan, 2005. […]
# Imaging data were analyzed with Metafluor 6.2 software (Universal Imaging, Downingtown, Pa.). Fluorescence images were background-corrected by deducting the background (regions with no cells) from the emission intensities of CFP or YFP. […]
compound,measurement,setting,value
COC[C@@H]([C@H](O)[C@H](O)C(=O)NCC[C@H](C)c1nc(/C=C/C[C@@H]2O[C@]3(C[C@@H](O)[C@@H]2C)O[C@H]([C@H](C[C@H](O)[C@H](C)[C@H](O)[C@H](C)/C=C(C)/C(C)=C/C=C/C(C)=C\C#N)OC)[C@H](OP(=O)(O)O)C3(C)C)co1)N(C)C [Calyculin A],effect on Mito-AktAR response,"[1]; endogenous Akt, Calyculin A 5 nM or LY294002 20 μM",did not recover any Akt activity
same,effect on Mito-AktAR response,"[1]; overexpressed Mito-mCherry-Akt1, Calyculin A 5 nM or LY294002",failed to activate mitochondrial outer membrane-bound Akt
same,effect on Mito-AktAR response,"[1]; overexpressed mCherry-Akt1, after PDGF, Calyculin A 5 nM or LY294002 20 μM",further increased the response
same,effect on AktAR response,"[2]; 5 nM after PDGF 50 ng/ml, serum-starved NIH3T3 cells",substantially increased the response of AktAR
C[S+]([O-])c1ccc(-c2nc(-c3ccncc3)c(-c3ccc(F)cc3)[nH]2)cc1 (stereo not shown) [SB203580],effect on response of the reporter to anisomycin,[3],does not affect the response of the reporter to anisomycin
CCCCCCCCCCCCCCCCCCOC[C@H](COP(=O)(O)O[C@H]1[C@H](O)[C@@H](O)[C@H](O)C[C@H]1OC)OC [SH-5],AktAR response to PDGF after pre-incubation with inhibitor,"[2]; 6 μM pre-incubation in HBSS, PDGF 50 ng/ml",did not show substantial response
Cyclosporin A [CsA],effect on FRET change of CaNAR1 induced by ionomycin,[4],completely abolished the FRET change
same,effect on FRET change of CaNAR1 induced by ionomycin,[4]; listed as cyclosporine A,abolished
same,effect on electrophoretic mobility of CaNAR1 after ionomycin,[5],no change in the electrophoretic mobility
methylated β-cyclodextrin [MβCD],effect on PM(Lyn)-AktAR response to PDGF (lipid rafts),[6],delayed response and reduced dynamic range; also recorded: diminishes Akt activity at the plasma membrane lipid rafts

# — patent publication US9017962B2, “Intracellular reporters” (The Johns Hopkins University, priority 2007, dated 2015)
